From patent US20040186098A1 (Amgen Inc., priority 1997, published 2004)

Test system: hair cells in rat organ of Corti explant
Test: Organ of Corti (cochlea) explant culture, hair cell survival after neomycin
Assay type: cell-based
Description: The sensorineurotrophic compound stock solution was stored at room temperature and prepared fresh for each culture. The stock solution was diluted in 10 μl of 100% EtOH for every milligram of sensorineurotrophic compound in the stock solution (approximately 250 mM). This solution of 250 mM sensorineurotrophic compound in 100% EtOH was diluted in normal culture medium to working concentrations of 50000 nM, 5000 nM, 500 nM, 50 nM, 5000 pM, 500 pM, 50 pM, 10 pM, 5 pM, 1 pM, 0.5 pM, 0.1 pM, and 0.01 pM. […]
Organ of Corti explants were obtained from P3-P4 Wistar rats. […] The organ of Corti then was transferred to a 35-mm diameter Petri dish containing cold PBS supplemented with glucose and was ready to be cultured. […]
To identify and count hair cells in the organ of Corti, a direct immunostaining method was used to label the actin present naturally in the stereocilia bundles of the hair cells. […] The explants were observed under a Nikon Diaphot-300 inverted fluorescence microscope, using FITC filters and fluorescence optics.
In each cochlea, the number of hair cells was counted in 2-3 sections, 175 μm in length each. Only the sections in the middle turn of the cochlea were analyzed. […]

## CCC(C)(C)C(=O)C(=O)N1CCC[C@H]1C(=O)OCCCc1cccnc1 [Compound I]
Compound I 0.05 pM together with 0.6 mM neomycin
  surviving hair cells: 31.8%±16.4
Compound I 0.05 pM together with neomycin, neomycin alone 95%
  loss of hair cells: around 70%
